Patent US8012956B2, “Tropane compounds” (Exelixis, Inc., priority 2007, dated 2011)

Target: HSP90 (Homo sapiens, UniProt P07900)
Experiment: HSP90 inhibition (HSP90 IC50)
Assay type: biochemical

SMILES | IC50 [nM]
COc1cccc(C(=O)N[C@H]2C[C@H]3CC[C@@H](C2)N3c2ccc(C(=O)NCc3c(F)cc(F)cc3F)cn2)c1C [6-[3-endo-({[2-methyl-3-(methyloxy)phenyl]carbonyl}amino)-8-azabicyclo[3.2.1]oct-8-yl]-N-[(2,4,6-trifluorophenyl)methyl]pyridine-3-carboxamide] | < 500
COc1cccc(C(=O)N[C@H]2C[C@H]3CC[C@@H](C2)N3c2ccc(C(=O)NCc3ccccc3C)cn2)c1C [6-[3-endo-({[2-methyl-3-(methyloxy)phenyl]carbonyl}amino)-8-azabicyclo[3.2.1]oct-8-yl]-N-[(2-methylphenyl)methyl]pyridine-3-carboxamide] | < 500
COc1cccc(C(=O)N[C@H]2C[C@H]3CC[C@@H](C2)N3c2ccc(C(=O)NCc3cccc(C)c3)cn2)c1C [6-[3-endo-({[2-methyl-3-(methyloxy)phenyl]carbonyl}amino)-8-azabicyclo[3.2.1]oct-8-yl]-N-[(3-methylphenyl)methyl]pyridine-3-carboxamide] | 2000 to 10000
COc1cccc(C(=O)NC2CC3CCC(C2)N3c2ccc(C(=O)N[C@@H]3CCN(Cc4ccccc4)C3)cn2)c1C (stereo partly drawn) [6-[3-endo-({[2-methyl-3-(methyloxy)phenyl]carbonyl}amino)-8-azabicyclo[3.2.1]oct-8-yl]-N-[(3R)-1-(phenylmethyl)pyrrolidin-3-yl]pyridine-3-carboxamide] | < 500
COc1cccc(C(=O)NC2CC3CCC(C2)N3c2ccc(C(=O)N[C@@H]3CCN(C)C3)cn2)c1C (stereo partly drawn) [6-[3-endo-({[2-methyl-3-(methyloxy)phenyl]carbonyl}amino)-8-azabicyclo[3.2.1]oct-8-yl]-N-[(3R)-1-methylpyrrolidin-3-yl]pyridine-3-carboxamide] | < 500
COc1cccc(C(=O)NC2CC3CCC(C2)N3c2ccc(C(=O)N[C@@H]3CCNC3)cn2)c1C (stereo partly drawn) [6-[3-endo-({[2-methyl-3-(methyloxy)phenyl]carbonyl}amino)-8-azabicyclo[3.2.1]oct-8-yl]-N-[(3R)-pyrrolidin-3-yl]pyridine-3-carboxamide] | 500 to 999
COc1cccc(C(=O)NC2CC3CCC(C2)N3c2ccc(C(=O)N[C@H]3CCN(Cc4ccccc4)C3)cn2)c1C (stereo partly drawn) [6-[3-endo-({[2-methyl-3-(methyloxy)phenyl]carbonyl}amino)-8-azabicyclo[3.2.1]oct-8-yl]-N-[(3S)-1-(phenylmethyl)pyrrolidin-3-yl]pyridine-3-carboxamide] | 500 to 999
COc1cccc(C(=O)NC2CC3CCC(C2)N3c2ccc(C(=O)N[C@H]3CCN(C)C3)cn2)c1C (stereo partly drawn) [6-[3-endo-({[2-methyl-3-(methyloxy)phenyl]carbonyl}amino)-8-azabicyclo[3.2.1]oct-8-yl]-N-[(3S)-1-methylpyrrolidin-3-yl]pyridine-3-carboxamide] | 1000 to 2000
COc1cccc(C(=O)N[C@H]2C[C@H]3CC[C@@H](C2)N3c2ccc(C(=O)NCc3ccc(N4CCOCC4)cc3)cn2)c1C [6-[3-endo-({[2-methyl-3-(methyloxy)phenyl]carbonyl}amino)-8-azabicyclo[3.2.1]oct-8-yl]-N-[(4-morpholin-4-ylphenyl)methyl]pyridine-3-carboxamide] | < 500
COc1cccc(C(=O)N[C@H]2C[C@H]3CC[C@@H](C2)N3c2ccc(C(=O)NCc3ccc(N4CCNCC4)cc3)cn2)c1C [6-[3-endo-({[2-methyl-3-(methyloxy)phenyl]carbonyl}amino)-8-azabicyclo[3.2.1]oct-8-yl]-N-[(4-piperazin-1-ylphenyl)methyl]pyridine-3-carboxamide] | < 500
COc1cccc(C(=O)N[C@H]2C[C@H]3CC[C@@H](C2)N3c2ccc(C(=O)NCc3ccc(N4CCCC4)cc3)cn2)c1C [6-[3-endo-({[2-methyl-3-(methyloxy)phenyl]carbonyl}amino)-8-azabicyclo[3.2.1]oct-8-yl]-N-[(4-pyrrolidin-1-ylphenyl)methyl]pyridine-3-carboxamide] | 500 to 999
COc1cccc(C(=O)N[C@H]2C[C@H]3CC[C@@H](C2)N3c2ccc(C(=O)NCc3cnc(C)cn3)cn2)c1C [6-[3-endo-({[2-methyl-3-(methyloxy)phenyl]carbonyl}amino)-8-azabicyclo[3.2.1]oct-8-yl]-N-[(5-methylpyrazin-2-yl)methyl]pyridine-3-carboxamide] | < 500
COc1cccc(C(=O)NC2CC3CCC(C2)N3c2ccc(C(=O)NC3CCCNC3)cn2)c1C (stereo not drawn) [6-[3-endo-({[2-methyl-3-(methyloxy)phenyl]carbonyl}amino)-8-azabicyclo[3.2.1]oct-8-yl]-N-piperidin-3-ylpyridine-3-carboxamide] | 500 to 999
COc1cccc(C(=O)N[C@H]2C[C@H]3CC[C@@H](C2)N3c2ccc(C(=O)NC3CCNCC3)cn2)c1C [6-[3-endo-({[2-methyl-3-(methyloxy)phenyl]carbonyl}amino)-8-azabicyclo[3.2.1]oct-8-yl]-N-piperidin-4-ylpyridine-3-carboxamide] | < 500
CCCNC(=O)c1ccc(N2[C@@H]3CC[C@H]2C[C@@H](NC(=O)c2cccc(OC)c2C)C3)nc1 [6-[3-endo-({[2-methyl-3-(methyloxy)phenyl]carbonyl}amino)-8-azabicyclo[3.2.1]oct-8-yl]-N-propylpyridine-3-carboxamide] | 1000 to 2000
COc1ccc([C@@H](C)NC(=O)c2ccc(N3C4CCC3CC(NC(=O)c3cccc(OC)c3C)C4)nc2)cc1 (stereo partly drawn) [6-[3-endo-({[2-methyl-3-(methyloxy)phenyl]carbonyl}amino)-8-azabicyclo[3.2.1]oct-8-yl]-N-{(1R)-1-[4-(methyloxy)phenyl]ethyl}pyridine-3-carboxamide] | 2000 to 10000
COc1cccc([C@H](C)NC(=O)c2ccc(N3C4CCC3CC(NC(=O)c3cccc(OC)c3C)C4)nc2)c1 (stereo partly drawn) [6-[3-endo-({[2-methyl-3-(methyloxy)phenyl]carbonyl}amino)-8-azabicyclo[3.2.1]oct-8-yl]-N-{(1S)-1-[3-(methyloxy)phenyl]ethyl}pyridine-3-carboxamide] | < 500
COc1cccc(C(=O)NC2CC3CCC(C2)N3c2ccc(C(=O)N[C@@H](C)c3ccc(N4CCN(C)CC4)cc3)cn2)c1C (stereo partly drawn) [6-[3-endo-({[2-methyl-3-(methyloxy)phenyl]carbonyl}amino)-8-azabicyclo[3.2.1]oct-8-yl]-N-{(1S)-1-[4-(4-methylpiperazin-1-yl)phenyl]ethyl}pyridine-3-carboxamide] | < 500
COc1cccc(C(=O)NC2CC3CCC(C2)N3c2ccc(C(=O)N[C@H]3CCC[C@@H]3OCc3ccccc3)cn2)c1C (stereo partly drawn) [6-[3-endo-({[2-methyl-3-(methyloxy)phenyl]carbonyl}amino)-8-azabicyclo[3.2.1]oct-8-yl]-N-{(1S,2S)-2-[(phenylmethyl)oxy]cyclopentyl}pyridine-3-carboxamide] | 2000 to 10000
COc1cccc(C(=O)N[C@H]2C[C@H]3CC[C@@H](C2)N3c2ccc(C(=O)NCc3ccccc3N3CCN(C)CC3)cn2)c1C [6-[3-endo-({[2-methyl-3-(methyloxy)phenyl]carbonyl}amino)-8-azabicyclo[3.2.1]oct-8-yl]-N-{[2-(4-methylpiperazin-1-yl)phenyl]methyl}pyridine-3-carboxamide] | 1000 to 2000
COc1ccccc1CNC(=O)c1ccc(N2[C@@H]3CC[C@H]2C[C@@H](NC(=O)c2cccc(OC)c2C)C3)nc1 [6-[3-endo-({[2-methyl-3-(methyloxy)phenyl]carbonyl}amino)-8-azabicyclo[3.2.1]oct-8-yl]-N-{[2-(methyloxy)phenyl]methyl}pyridine-3-carboxamide] | 1000 to 2000
COc1cccc(C(=O)N[C@H]2C[C@H]3CC[C@@H](C2)N3c2ccc(C(=O)NCc3cc(OC)c(OC)c(OC)c3)cn2)c1C [6-[3-endo-({[2-methyl-3-(methyloxy)phenyl]carbonyl}amino)-8-azabicyclo[3.2.1]oct-8-yl]-N-{[3,4,5-tris(methyloxy)phenyl]methyl}pyridine-3-carboxamide] | 1000 to 2000
COc1cccc(CNC(=O)c2ccc(N3[C@@H]4CC[C@H]3C[C@@H](NC(=O)c3cccc(OC)c3C)C4)nc2)c1 [6-[3-endo-({[2-methyl-3-(methyloxy)phenyl]carbonyl}amino)-8-azabicyclo[3.2.1]oct-8-yl]-N-{[3-(methyloxy)phenyl]methyl}pyridine-3-carboxamide] | 2000 to 10000
COc1cccc(C(=O)N[C@H]2C[C@H]3CC[C@@H](C2)N3c2ccc(C(=O)NCc3ccc(C4CCN(C)CC4)cc3)cn2)c1C [6-[3-endo-({[2-methyl-3-(methyloxy)phenyl]carbonyl}amino)-8-azabicyclo[3.2.1]oct-8-yl]-N-{[4-(1-methylpiperidin-4-yl)phenyl]methyl}pyridine-3-carboxamide] | < 500
COc1ccc(CNC(=O)c2ccc(N3[C@@H]4CC[C@H]3C[C@@H](NC(=O)c3cccc(OC)c3C)C4)nc2)cc1 [6-[3-endo-({[2-methyl-3-(methyloxy)phenyl]carbonyl}amino)-8-azabicyclo[3.2.1]oct-8-yl]-N-{[4-(methyloxy)phenyl]methyl}pyridine-3-carboxamide] | < 500
COc1cccc(C(=O)N[C@H]2C[C@H]3CC[C@@H](C2)N3c2ccc(C(=O)NCc3ccc(C(F)(F)F)cc3)cn2)c1C [6-[3-endo-({[2-methyl-3-(methyloxy)phenyl]carbonyl}amino)-8-azabicyclo[3.2.1]oct-8-yl]-N-{[4-(trifluoromethyl)phenyl]methyl}pyridine-3-carboxamide] | 1000 to 2000
COc1cccc(C(=O)N[C@H]2C[C@H]3CC[C@@H](C2)N3c2ccc(C(N)=O)cn2)c1C [6-[3-endo-({[2-methyl-3-(methyloxy)phenyl]carbonyl}amino)-8-azabicyclo[3.2.1]oct-8-yl]pyridine-3-carboxamide] | 500 to 999
COc1cccc(C(=O)N[C@H]2C[C@H]3CC[C@@H](C2)N3c2ccc(C(=O)NCc3cccc(N4CCN(C)CC4)c3)cn2)c1C [6-[3-endo-({[2-methyl-3-(methyloxy)phenyl]carbony}amino)-8-azabicyclo[3.2.1]oct-8-yl]-N-{[3-(4-methylpiperazin-1-yl)phenyl]methyl}pyridine-3-carboxamide] | < 500
CSc1cccc(C(=O)NC2CC3CCC(C2)N3c2ccc(C(=O)N[C@@H](C)c3ccc(N4CCN(C)CC4)cc3)cn2)c1C (stereo partly drawn) [6-[3-endo-({[2-methyl-3-(methylthio)phenyl]carbonyl}amino)-8-azabicyclo[3.2.1]oct-8-yl]-N-{(1S)-1-[4-(4-methylpiperazin-1-yl)phenyl]ethyl}pyridine-3-carboxamide] | 500 to 999
